Assay results as given in US4210749A, “Substituted 1,2,4,5-tetrahydro-3H,3 benzazepines” (priority 1979, dated 1980).
Where a name gives a salt, the structure may show the parent alone.

Legend:
[1] = I.P. symptomatology (highest tolerated dose, median lethal dose), Table IV; assay type: in vivo; conditions: in vivo, ip; for MTD: read-out: HTD (highest tolerated dose)
[2] = Mouse tail stimulation (MST), Table IV; assay type: in vivo; set-up: unit not given here; conditions: S.C.
[3] = system: isolated segments of guinea pig ileum (acetylcholine); experiment: Anticholinergic activity: block of acetylcholine in isolated segments of guinea pig ileum
morphine analgesia = assay type: in vivo, rat; conditions: for Narcotic antagonist potency relative to pentazocine: Table II
sciatic block = experiment: Local anesthetic sciatic block, Table IV; assay type: in vivo; conditions: 1%
[4] = Narcotic antagonism I.P., Table IV; assay type: in vivo
[5] = system: isolated segments of guinea pig ileum (histamine); experiment: Antihistaminic activity: block of histamine in isolated segments of guinea pig ileum
in vivo [6] = experiment: in vivo
[7] = Analgesic activity, hot plate method; assay type: in vivo
in vivo [8] = experiment: in vivo; remark: listed apart in the source
[9] = Analgesic activity, writhing method; assay type: in vivo
[10] = Analgesic activity in hot plate and writhing tests, overall comparison; conditions: for Analgesic efficacy by route of administration: oral vs parenteral
[11] = system: phenylbenzoquinone writhing; experiment: Phenylbenzoquinone (PBQ) writhing analgesia, Table IV; assay type: in vivo; conditions: sc; S.C.; marked * Median effective dose

Row | Compound | LD50 [1] [mg/kg] | MTD [1] [mg/kg] | MST (mouse tail stimulation) [2] | Conc. for 50% block of Acetylcholine [3] [μg/20 ml] | Narcotic antagonist potency relative to pentazocine (morphine analgesia) | Local Anesthetic Sciatic Block (sciatic block) | Narcotic Antagonism [4] | Conc. for 50% block of Histamine [5] [μg/20 ml] | ED50 ([7]; ip) [mg/kg] | ED50 ([7]; po) [mg/kg] | ED50 ([9]; po) [mg/kg] | ED50 ([9]; sc) [mg/kg] | further results
1 | CC(C)=CCN1CCc2ccc(O)cc2CC1 [Example 4, 3-(3,3-Dimethylallyl)-7-hydroxy-1,2,4,5-tetrahydro-3H,3-benzazepine] | 96 | 30 | > 56 | 120 | more potent antagonist than pentazocine | Positive | Positive | 76 |  |  |  |  | 
2 | C=CCN1CCc2ccc(OC)cc2CC1 [Example 14, 3-Allyl-7-methoxy-1,2,4,5-tetrahydro-3H,3-benzazepine] | 80 | 60 |  |  | about equipotent to pentazocine | Positive | Positive |  | 42 | > 178 | > 178 | > 56 | NOAEL (in vivo [6]; po): 178 mg/kg; LD50 (in vivo [8]; po): > 1000 mg/kg
3 | COc1ccc2c(c1)CCN(C)CC2 [Example 18, 7-Methoxy-3-methyl-1,2,4,5-tetrahydro-3H,3-benzazepine] | 80 | 25 |  |  |  |  | Negative |  | 20 | 140 | > 180 | > 32 | Analgesic efficacy by route of administration [10]: active by the oral route
4 | CCCN1CCc2ccc(O)cc2CC1 [Example 23, 7-Hydroxy-3-n-propyl-1,2,4,5-tetrahydro-3H,3-benzazepine] | 50 | 20 |  | > 1000 |  | Positive | Positive | 75 |  |  |  |  | 
5 | COc1ccc2c(c1)CCN(CCc1ccccc1)CC2 [Example 24, 7-Methoxy-3-phenethyl-1,2,4,5-tetrahydro-3H,3-benzazepine] | > 200 | > 50 |  | 74 | about equipotent to pentazocine | Positive |  | 10 | 12 | > 178 | > 178 | ~11 | NOAEL (in vivo [6]; po): 178 mg/kg; Analgesic activity ranking [10]: most active compounds; Separation between effective dose and toxic or lethal doses [10]: greatest separation between effective dose and toxic or lethal doses; LD50 (in vivo [8]; po): > 1000 mg/kg
6 | COc1ccc2c(c1)CCN(CC=Cc1ccccc1)CC2 [Example 28, 7-Methoxy-3-(3-phenylallyl)-1,2,4,5-tetrahydro-3H,3-benzazepine] | 60 | 20 | 10 |  | about equipotent to pentazocine |  | Positive |  | > 18 | 125 | 120 | > 18 | Analgesic efficacy by route of administration [10]: active by the oral route
7 | COc1ccc2c(c1)CCN(CCN1CCN(c3ccccc3)CC1)CC2 [Example 31, 7-Methoxy-3-[2-(4-phenyl-1-piperazinyl)ethyl]-1,2,4,5-tetrahydro-3H,3-benzazepine] | 80 | 30 | 20 |  |  | Positive | Negative |  | ~8 | ~80 | > 100 |  | NOAEL (in vivo [6]; ip): 32 mg/kg; NOAEL (in vivo [6]; po): 100 mg/kg; Analgesic activity ranking [10]: most active compounds; Separation between effective dose and toxic or lethal doses [10]: greatest separation between effective dose and toxic or lethal doses; LD50 (in vivo [8]; ip): ~80 mg/kg; LD50 (in vivo [8]; po): ~300 mg/kg
8 | c1ccc2c(c1)CCN(CC1CC1)CC2 [Example 37, 3-Cyclopropylmethyl-1,2,4,5-tetrahydro-3H,3-benzazepine hydrochloride] | 60 | 10 | 10 | 540 |  |  | Negative | 20 | 12 | 37 | 49 | > 18 | Analgesic efficacy by route of administration [10]: active by the oral route; Writhing test activity relative to pentazocine ([9]; oral route): approximately twice as active as pentazocine
9 | COc1ccc2c(c1)CC(C)N(C)CC2 (stereo not shown) [Example 39, 8-Methoxy-2,3-dimethyl-1,2,4,5-tetrahydro-3H,3-benzazepine hydrochloride] | ~150 | 10 |  |  |  | Positive | Negative |  |  |  |  |  | ED50 [11]: > 30 mg/kg
10 | COc1ccc2c(c1)CC(C)N(CCN1CCN(c3ccccc3)CC1)CC2 (stereo not shown) [Example 40, 8-Methoxy-2-methyl-3-[2-(4-phenyl-1-piperazinyl)-ethyl]-1,2,4,5-tetrahydro-3H,3-benzazepine dihydrochloride] | > 100 | 30 |  |  |  | Positive | Negative |  |  |  |  |  | ED50 [11]: > 30 mg/kg
11 | C=CCN1CC[C@]23c4c5ccc(O)c4O[C@H]2[C@@H](O)C=C[C@H]3[C@H]1C5 [Nalorphine, reference compound] |  |  |  |  |  |  |  |  |  |  |  |  | Antagonism of Morphine Analgesia, times more active than compounds listed above (morphine analgesia; rat, in vivo, sc): 20-100 times
